This passage reports IC50 results from US11873291B2, “Quinoline cGAS antagonist compounds” (ImmuneSensor Therapeutics, Inc., priority 2020, dated 2024).

Each structure is given as a SMILES string. Bounds are passed on as bounds.

Experiment [1] deals with T1, recombinant human cGAS (aa147-522) (Homo sapiens, UniProt Q8N884).
T1 construct: recombinant human cGAS (aa147-522); His6-SUMO (cleaved yes); made in house; host or cells: E. coli BL21/pLys
In words: In vitro inhibition assay of cGAS activity (ATP consumption, KinaseGlo Max). It is filed as biochemical. The following applies: Table 3, read-out: cGAS Inhibition Results IC50. Summed up:
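IC50 came from plotting % ATP consumption against log compound concentration, with leftover ATP detected by KinaseGlo Max chemiluminescence. Reactions ran 20 min at 37 °C with 1.5 μg/mL human cGAS (aa147-522), 6.6 μM ATP, 0.1 mM GTP and 0.01 mg/mL DNA at pH 7.5.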
A general note: In Kinase-Glo more light means more ATP remaining.

For experiment [2], the system named is cGAS activity in Reporter THP1 cell line. In words: Cellular assay to measure cGAS activity: ISRE-Gaussia luciferase reporter THP1 cells transfected with ISD. It is filed as cell-based. Conditions: Homo sapiens, THP-1, Table 4, Gaussia luciferase. As for the experimental part:
Cellular assay to measure cGAS activity: Reporter THP1 cell line harboring a gene encoding Gaussia Luciferase under the control of 5 tandem repeats of interferon-stimulated response elements (ISRE) fused to an ISG54 minimal promoter was used to test inhibition of cGAS activity by synthetic compounds in human cells. These cells were plated on 96-well plates at 0.3×10^6/well and incubated with serial dilutions of compounds or DMSO for 5 min, followed by transfection of 2 μg/mL of ISD (Interferon Stimulatory DNA, a 45 bp DNA oligo) or mock transfected using lipofectamine 2000 (Life Technology) method, according to manufacturer's instructions. 16 hours later, 15 μL of the media from each well was transferred to a new plate, 50 μL of solution containing 50 mM Hepes-NaOH, pH 6.5, 50 mM NaCl, 10 mM EDTA, 1 μM of coelenterazine was added to each well and luminescence was measured immediately. Fold increase in luminescence compared to mock transfection was plotted against concentrations of each compound, and IC50 is calculated using Graphpad. To evaluate the specificity of a compound, the same procedure was performed except that cells were transfected with 2 μg/mL poly(I:C) or infected with Sendai Virus (SeV) at 50 Unit/mL, which are known to activate the RIG-I-MAVS pathway. A specific inhibitory compound should inhibit interferon induction by DNA but have minimal effect on poly(I:C) or Sendai virus induced interferon reporter gene expression.
The letter codes for cGAS IC50 include: A (<2 μM); B (2-10 μM); C (>10 μM).
(In a reporter assay the amount or activity of a reporter protein is the signal.)

T1 sequence (Q8N884 147-522): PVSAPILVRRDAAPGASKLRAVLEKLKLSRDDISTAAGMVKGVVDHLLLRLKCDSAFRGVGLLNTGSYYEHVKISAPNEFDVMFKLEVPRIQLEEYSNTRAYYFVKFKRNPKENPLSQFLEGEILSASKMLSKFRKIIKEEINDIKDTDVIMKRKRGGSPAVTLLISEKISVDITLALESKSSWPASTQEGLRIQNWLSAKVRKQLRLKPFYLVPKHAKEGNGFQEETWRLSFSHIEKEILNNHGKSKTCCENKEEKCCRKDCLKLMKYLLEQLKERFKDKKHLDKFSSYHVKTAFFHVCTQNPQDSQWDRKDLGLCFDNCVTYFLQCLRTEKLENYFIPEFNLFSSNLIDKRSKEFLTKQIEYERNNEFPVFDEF

On to `COC(=O)[C@@H]1[C@@H](OC(C)=O)CCN1c1cc(-n2ccnc2)c2ccc(Cl)c(Cl)c2n1` [I-642, methyl (2S,3S)-3-acetoxy-1-(7,8-dichloro-4-(1H-imidazol-1-yl)quinolin-2-yl)pyrrolidine-2-carboxylate], for which the IC50 is 2 to 30 µM in experiment [1] and less than 2 µM in experiment [2].

For the compound `CC(C)(C)OC(=O)[C@@H]1[C@@H](O)CCN1c1cc(-n2ccnc2)c2ccc(Cl)c(Cl)c2n1` [I-645, tert-butyl (2S,3S)-1-(7,8-dichloro-4-(1H-imidazol-1-yl)quinolin-2-yl)-3-hydroxypyrrolidine-2-carboxylate], the IC50 in experiment [1] was 2 to 30 µM; in experiment [2], less than 2 µM.

Take `COC(=O)[C@@H]1[C@@H](F)CCN1c1cc(-n2ccnc2)c2ccc(Cl)c(Cl)c2n1` [I-649, methyl (2R,3S)-1-(7,8-dichloro-4-(1H-imidazol-1-yl)quinolin-2-yl)-3-fluoropyrrolidine-2-carboxylate]: the concentration for half-maximal inhibition (IC50) was in the range of 2 to 30 µM in experiment [1] and 2 to 10 µM in experiment [2].

For `COC(=O)[C@@H]1[C@H](F)CCN1c1cc(-n2ccnc2)c2ccc(Cl)c(Cl)c2n1` [I-650], the figures for the IC50 in experiment [1] and in experiment [2] were 2 to 30 µM and 2 to 10 µM, respectively.

`O=C(OC(C(F)(F)F)C(F)(F)F)[C@@H]1[C@@H](O)CCN1c1cc(-n2ccnc2)c2ccc(Cl)c(Cl)c2n1` [I-663]: the IC50 in experiment [1] and in experiment [2] was less than 2 µM throughout.

With `O=C(O)CCOC[C@@H]1CCCN1c1cc(-n2ccnc2)c2ccc(Cl)c(Cl)c2n1` [I-664, (S)-3-((1-(7,8-dichloro-4-(1H-imidazol-1-yl)quinolin-2-yl)pyrrolidin-2-yl)methoxy)propanoic acid], the IC50 in experiment [1] and in experiment [2] was less than 2 µM in each case.

On to `COC(=O)CCOC[C@@H]1CCCN1c1cc(-n2ccnc2)c2ccc(Cl)c(Cl)c2n1` [I-665, methyl (S)-3-((1-(7,8-dichloro-4-(1H-imidazol-1-yl)quinolin-2-yl)pyrrolidin-2-yl)methoxy)propanoate], for which the IC50 in experiment [1] and in experiment [2] was less than 2 µM throughout.

`O=C(O)COC[C@@H]1CCCN1c1cc(-n2ccnc2)c2ccc(Cl)c(Cl)c2n1` [I-666, (S)-2-((1-(7,8-dichloro-4-(1H-imidazol-1-yl)quinolin-2-yl)pyrrolidin-2-yl)methoxy)acetic acid]: the IC50 in experiment [1] and in experiment [2] was less than 2 µM in each case.

As to `COC(=O)COC[C@@H]1CCCN1c1cc(-n2ccnc2)c2ccc(Cl)c(Cl)c2n1` [I-667, methyl (S)-2-((1-(7,8-dichloro-4-(1H-imidazol-1-yl)quinolin-2-yl)pyrrolidin-2-yl)methoxy)acetate], the IC50 in experiment [1] and in experiment [2] was less than 2 µM each time.

In the case of `O=C(O)COCC[C@@H]1CCCN1c1cc(-n2ccnc2)c2ccc(Cl)c(Cl)c2n1` [I-668], the IC50 in experiment [1] and in experiment [2] was less than 2 µM in each case.

Take `COC(=O)COCC[C@@H]1CCCN1c1cc(-n2ccnc2)c2ccc(Cl)c(Cl)c2n1` [I-669]: the results for the IC50 in experiment [1] and in experiment [2] were 2 to 30 µM and less than 2 µM, respectively.

Regarding `O=C(O)CCOC[C@@H]1CCCN1c1cc(-c2cn[nH]c2)c2ccc(Cl)c(Cl)c2n1` [I-670], the IC50 in experiment [1] and in experiment [2] was less than 2 µM throughout.

For the compound `COC(=O)CCOC[C@@H]1CCCN1c1cc(-c2cn[nH]c2)c2ccc(Cl)c(Cl)c2n1` [I-671], the IC50 in experiment [1] and in experiment [2] was less than 2 µM in each case.

For the compound `O=C(O)CCOCC[C@@H]1CCCN1c1cc(-n2ccnc2)c2ccc(Cl)c(Cl)c2n1` [I-672], the IC50 in experiment [1] and in experiment [2] was less than 2 µM each time.

Consider `COC(=O)CCOCC[C@@H]1CCCN1c1cc(-n2ccnc2)c2ccc(Cl)c(Cl)c2n1` [I-673], for which the IC50 in experiment [1] is 2 to 30 µM; in experiment [2], less than 2 µM.

As for `O=C(O)CCOC[C@H]1CCCN1c1cc(-n2ccnc2)c2ccc(Cl)c(Cl)c2n1` [I-674], the figures for the IC50 in experiment [1] and in experiment [2] were less than 2 µM and 2 to 10 µM, respectively.

As for `O=C(O)CCCCOC[C@@H]1CCCN1c1cc(-n2ccnc2)c2ccc(Cl)c(Cl)c2n1` [I-676], the IC50 in experiment [1] and in experiment [2] was less than 2 µM throughout.

What is called IC50 is the concentration at which inhibition is half-maximal.
